Results reported in patent US20240207258A1, “HETEROCYCLIC PDK1 INHIBITORS FOR USE TO TREAT CANCER” (Viracta Therapeutics, Inc., priority 2015, published 2024).

Key:
[1] = molecular target: T1, Full-length PDK1 (Homo sapiens, UniProt O15530); assay: PDK1 kinase activity assay (FRET); assay type: biochemical; conditions: for inhibition of PDK1 kinase activity: phosphorylated and un-phosphorylated PDK1, FIGS. 2A and 2B
T1 construct: Full-length PDK1 protein (SignalChem) was dephosphorylated; purchased SignalChem
T1 sequence (O15530 1-556): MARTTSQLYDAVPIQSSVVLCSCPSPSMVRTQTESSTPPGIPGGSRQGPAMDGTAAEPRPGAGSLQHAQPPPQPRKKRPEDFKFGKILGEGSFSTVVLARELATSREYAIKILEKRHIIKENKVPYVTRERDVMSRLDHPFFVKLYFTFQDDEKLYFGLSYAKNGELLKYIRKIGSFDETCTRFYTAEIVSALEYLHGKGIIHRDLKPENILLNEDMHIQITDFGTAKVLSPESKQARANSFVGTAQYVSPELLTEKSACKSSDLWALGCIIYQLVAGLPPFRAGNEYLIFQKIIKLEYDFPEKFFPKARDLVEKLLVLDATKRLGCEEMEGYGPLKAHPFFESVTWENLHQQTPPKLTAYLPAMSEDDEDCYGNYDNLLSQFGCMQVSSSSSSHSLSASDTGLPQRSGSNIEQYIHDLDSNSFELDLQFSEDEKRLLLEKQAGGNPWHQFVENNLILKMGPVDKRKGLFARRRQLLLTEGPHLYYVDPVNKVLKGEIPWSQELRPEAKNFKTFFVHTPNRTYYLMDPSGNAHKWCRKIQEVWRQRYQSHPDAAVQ
Procedure: Full-length PDK1 protein (SignalChem) was dephosphorylated using GST-k-phosphatase (produced in house), which was subsequently removed using glutathione-agarose beads (Gold Biotechnology). […] Tb-pCrosstide antibody (ThermoFisher) was then added to a final concentration of 2 nM and the reaction was incubated for an additional 30 min. Fluorescence resonance energy transfer (FRET) was measured using a Tecan Infinite F500 plate reader with λex=340 nm, λem1=485 nm, λem2=520 nm.

[2] = system: MV4-11 tumor xenografts; assay: MV4-11 tumor xenograft efficacy; assay type: in vivo, mice
Text: MV4-11 cells were propagated in vitro and implanted subcutaneous into the right flank of 9-week old female NCr nu/nu mice as described in Example 7. The animals were fed ad libitum water (reverse osmosis, 1 ppm Cl), and NIH 31 Modified and Irradiated Lab Diet® consisting of 18.0% crude protein, 5.0% crude fat, and 5.0% crude fiber. Fourteen days after tumor implantation, designated as Day 1 of the study, the animals were sorted into seven groups each consisting of ten mice with individual tumor volumes of 108 to 288 mm^3 and group mean tumor volumes (MTV) of 162 to 165 mm^3. On Day 1 of the study, dosing by oral gavage was initiated as follows: The dosing volume was 0.100 mL per 20 grams of body weight (5 mL/kg), and was scaled to the body weight of each individual animal. Group 1 mice received vehicle and served as the control group. Groups 2-4 received Compound 1 at 5, 11, and 25 mg/kg, respectively, qd×21. Groups 5-7 received Compound 2 at 5, 11, and 25 mg/kg, respectively, qd×21. Dosing solutions were prepared weekly by dissolving the appropriate amount of powder in 1% […] (DMA) in Labrasol® (vehicle) to yield a 5 mg/mL solution. The 5 mg/mL solution provided the 25 mg/kg dosage in a dosing volume of 5 mL/kg. An aliquot of the 5 mg/mL solution was diluted in the vehicle to concentrations of 2.2 and 1 mg/mL which provided the 11 and 5 mg/kg dosages, respectively, in a dosing volume of 5 mL/kg.
Tumors were measured using calipers twice per week. The study endpoint was defined as a mean tumor volume of 2000 mm^3 in the control group or 22 days, whichever came first and the study was terminated on Day 22. Animals were weighed daily on Days 1-5, then twice per week until the completion of the study. The mice were observed frequently for overt signs of any adverse, treatment related (TR) side effects, and clinical signs were recorded when observed. Individual body weight loss was monitored as per protocol and any animal whose weight exceeded the limits for acceptable body weight loss was euthanized. Group mean body weight loss also was monitored as per protocol. Dosing was to be suspended in any group whose weight exceeded the limits for acceptable mean body weight loss. If mean body weight recovered, then dosing may be resumed in that group, but at a lower dosage or less frequent dosing schedule. Acceptable toxicity was defined as a group mean body weight loss of less than 20% during the study and not more than 10% treatment-related (TR) deaths. Any dosing regimen resulting in greater toxicity was considered above the maximum tolerated dose (MTD). A death was classified as TR if attributable to treatment side effects as evidenced by clinical signs and/or necropsy, or may also be classified as TR if due to unknown causes during the dosing period or within 14 days of the last dose. A death was classified as non-treatment-related (NTR) if there was no evidence that death was related to treatment side effects.
Treatment efficacy was determined using data from the final day. The MTV (n) (the median tumor volume for the number of animals, n) on the final day was determined for each group. Group 1 mice that received vehicle p.o. qd×21 served as the control group for analysis of tumor growth inhibition (TGI) determined according to the formula % TGI=[1−(MTVdrug-treated/MTVcontrol)]×100. Treatment efficacy was also determined from the incidence and magnitude of regression responses observed during the study. Treatment may cause partial regression (PR) or complete regression (CR) of the tumor in an animal. In a PR response, the tumor volume was 50% or less of its Day 1 volume for three consecutive measurements during the course of the study, and equal to or greater than 13.5 mm^3 for one or more of these three measurements. In a CR response, the tumor volume was less than 13.5 mm^3 for three consecutive measurements during the course of the study.

Structure (SMILES) | inhibition of PDK1 kinase activity [1] | MTV (median tumor volume) on Day 22 ([2]; 5 mg/kg p.o. qd×21) [mm^3] | TGI (tumor growth inhibition) ([2]; 5 mg/kg p.o. qd×21, Day 22) [%] | regression responses (PRs) ([2]; 5 mg/kg p.o. qd×21, ten mice) | MTV (median tumor volume) on Day 22 ([2]; 11 mg/kg p.o. qd×21) [mm^3] | TGI (tumor growth inhibition) ([2]; 11 mg/kg p.o. qd×21, Day 22) [%] | regression responses (PRs) ([2]; 11 mg/kg p.o. qd×21, ten mice) | MTV (median tumor volume) on Day 22 ([2]; 25 mg/kg p.o. qd×21) [mm^3] | TGI (tumor growth inhibition) ([2]; 25 mg/kg p.o. qd×21, Day 22) [%] | regression responses (PRs) ([2]; 25 mg/kg p.o. qd×21, ten mice) | biochemical potency compared to GSK2334470 [1]
C[C@H](NC(=O)c1nc(C#N)cnc1NCc1ccc(-c2cnc3[nH]nc(N)c3n2)cc1)c1ccc(F)c(F)c1 [Compound 1, 3-[4-(3-Amino-1H-pyrazolo[3,4-b]pyrazin-5-yl)-benzylamino]-6-cyano-pyrazine-2-carboxylic acid [1-(3,4-difluoro-phenyl)-ethyl]-amide] | potent inhibitors of both phosphorylated and un-phosphorylated PDK1 | 446 | 69 | no regression responses | 288 | 80 | no regression responses | 63 | 96 | seven | –
CNc1n[nH]c2ncc(-c3ccc(CNc4ncc(C#N)nc4C(=O)N[C@@H](C)c4ccc(F)c(F)c4)cc3)cc12 [Compound 2, 6-Cyano-3-[4-(3-methylamino-1H-pyrazolo[3,4-b]pyridin-5-yl)-benzylamino]-pyrazine-2-carboxylic acid [1-(3,4-difluoro-phenyl)-ethyl]-amide] | potent inhibitors of both phosphorylated and un-phosphorylated PDK1 | 320 | 77 | no regression responses | 108 | 92 | three | 40 | 97 | eight | comparable biochemical potency
